Experimental data reported in patent publication US20220153746A1, “NITROGEN OXIDE-DONATING PDE-5 AND/OR PDE-6 INHIBITOR COMPOUNDS, AND USES THEREOF” (ILDONG PHARMACEUTICAL CO., LTD., priority 2020, published 2022).
Where “and” joins values, the source holds several entries; their conditions need not be identical. Equal entries are not always repeated. Where two headings read alike, the source gives them in different places.

Assay: TD Phase (Groups 1 and 3): plasma and ocular tissue concentrations and pharmacokinetics of Compound 18 and its metabolite Compound 4 after once daily ocular instillation of Compound 18 nanosuspension for 7 days
Type: in vivo, New Zealand white rabbits
Conditions: for Compound 18 Lens Homogenate Conc.: homogenate dilution factor 5; for Cornea homogenate concentration: homogenate dilution factor 15; for concentration at 1 h: Group 1, 1 h
Text: This example illustrates the procedures and results for the levels of Compound 18 and its metabolite Compound 4 in plasma and ocular tissues of normotensive rabbits following ocular instillation of Compound 18 once daily for 7 consecutive days.
Twenty five (25) male New Zealand white rabbits were divided into 5 groups of varying amounts of animals per group.
The Test article, Compound 18 was formulated as a 2% nanosuspension in DI water containing 0.2% PS80 (polyoxyethylenesorbitan, monooleate (Tween 80)) and 0.4% HPMC (hydroxypropylmethylcellulose) at pH 6.77. Referred to herein as “Compound 18 nanosuspension.”
The study consisted of three groups (Groups 1-3) of 19 male rabbits (NZW) that underwent once daily morning ocular installation (1 eyedrop) for 7 consecutive days (Day 0-6). Groups 4-5 each consisted of 3 male rabbits (NZW) that were not dosed.
Blood samples (1 mL) were collected from the jugular vein at the intervals set out below for each group. The samples were then inverted several times following collection and held on wet ice until centrifuged. Samples were centrifuged within 60 minutes of collection under refrigeration (set at 5° C. for 10 minutes at 2000 g.
Group 1 (Pilot Study, terminal blood collection): blood was collected from 3 animals at 1 hour post day 7 dose of Compound 18 nanosuspension.
Group 3 (TD Phase, terminal blood collection): blood was collected from 3 animals at 0.5 hour, 3 animals at 2 hours, 3 animals at 4 hours, and 3 animals at 8 hours post day 7 dose of Compound 18 nanosuspension.
Group 1 (Pilot Study): 3 animals were terminated at 1 hour post Day 7 dose of Compound 18 nanosuspension. Following blood collection and termination, ocular tissues (aqueous humor, vitreous humor, cornea, iris/ciliary body, lens, optic nerve, retina, sclera/choroid, and trabecular meshwork) were collected from each animal and the tissue weights were recorded. Note: sclera and choroid were collected together. Iris and ciliary body were collected together.
Group 3 (TD Phase): 3 animals were terminated at 0.5 hour, 3 animals at 2 hours, 3 animals at 4 hours, and 3 animals at 8 hours post Day 7 dose of Compound 18 nanosuspension. Following blood collection and termination, ocular tissues (aqueous humor, vitreous humor, cornea, iris/ciliary body, lens, optic nerve, retina, sclera/choroid, and trabecular meshwork) were collected from each animal and the tissue weights were recorded. Note: sclera and choroid were collected together. Iris and ciliary body were collected together.
Plasma and tissue samples from treated animals (Groups 1-3) were analyzed for Compound 18 and its metabolite Compound 4 concentrations by LC-MS/MS.
Pharmacokinetic analysis was conducted using WinNonlin Version 6.2.1 (Pharsight, Mountain View, Calif.), operating as a validated software system. Noncompartmental analysis was conducted using the extravascular administration model for ocular instillation dosing.
The peak plasma and ocular tissue concentration, time to achieve peak plasma and ocular tissue concentration, half-life, and area under the plasma and ocular tissue concentration-time curve (Cmax, Tmax, T1/2, and AUC) were calculated from the TD phase combined with the pilot study mean animal plasma and ocular tissue concentrations for each sampling time/dose group for Compound 18 and its metabolite Compound 4.
BA Assay: Quantitation Range 0.05 to 100 ng/mL for Compound 18, 0.15 to 100 ng/mL for Compound 4.
3. Pipet 50 μL of each type of pre-spiked ocular tissue samples (AH/VH) for QC samples, 50 μL of incurred aqueous humor, and vitreous humor sample (if applicable) into a 96 well plate.
Ocular Tissues Homogenate Preparation: Incurred rabbit ocular tissues were weighed in Genogrinder tubes (plastic tubes with small beads) at the time of removal from the animal and stored frozen (<−70° C.) until analysis. The rabbit incurred ocular tissues were thawed on wet ice. […]

[1] = TD Phase, Group 3, 4 h, Mean, BQL set to 0
[2] = TD Phase, Group 3, 4 h, individual animals
[3] = TD Phase, Group 3, 4 h, individual animals, BQL set to 0
[4] = TD Phase, Group 3, 4 h, individual animals, homogenate dilution factor 20
[5] = TD Phase, Group 3, 8 h, Mean, BQL set to 0
[6] = TD Phase, Group 3, 8 h, individual animals
[7] = TD Phase, Group 3, 8 h, individual animals, BQL set to 0
[8] = TD Phase, Group 3, 8 h, individual animals, homogenate dilution factor 20

## CCCc1nn(C)c2c(=O)[nH]c(-c3cc(S(=O)(=O)N4CC(CCCO[N+](=O)[O-])C4)ccc3OCC)nc12 [Compound 18, 3-(1-((4-ethoxy-3-(1-methyl-7-oxo-3-propyl-6,7-dihydro-1H-pyrazolo[4,3-d]pyrimidin-5-yl)phenyl)sulfonyl)azetidin-3-yl)propyl nitrate]
TD Phase, Group 3, 2 h, individual animals, homogenate dilution factor 20
  Compound 18 Trahecular Meshwork Homogenate Conc.: BQL (BQL = Below lower limit of quantitation (0.0500 ng/mL for Compound 18)
TD Phase, Group 3, 2 h, individual animals, homogenate dilution factor 20 (164 for animal 207671)
  Compound 18 Retina Homogenate Conc.: 0.192 ng/mL and 3.47 ng/mL and 0.17 ng/mL
[1]
  Compound 18 Aqueous Humor Conc.: BQL (BQL = Below lower limit of quantitation (0.0500 ng/mL for Compound 18)
  Compound 18 Plasma Conc.: BQL (BQL = Below lower limit of quantitation (0.0500 ng/mL for Compound 18)
  Compound 18 Vitreous Humor Conc.: BQL (BQL = Below lower limit of quantitation (0.0500 ng/mL for Compound 18)
[2]
  Compound 18 Aqueous Humor Conc.: BQL (BQL = Below lower limit of quantitation (0.0500 ng/mL for Compound 18)
  Compound 18 Plasma Conc.: BQL (BQL = Below lower limit of quantitation (0.0500 ng/mL for Compound 18)
  Compound 18 Vitreous Humor Conc.: BQL (BQL = Below lower limit of quantitation (0.0500 ng/mL for Compound 18)
  Final Compound 18 Optic Nerve Conc.: 248 ng/g and 31.4 ng/g and 104 ng/g
  Compound 18 Lens Homogenate Conc.: BQL (BQL = Below lower limit of quantitation (0.0500 ng/mL for Compound 18)
  Cornea homogenate concentration: BQL (BQL = Below lower limit of quantitation (0.0500 ng/mL for Compound 18)
[3]
  Final Compound 18 Iris/Ciliary Body Conc.: 5.78 ng/g and 0 ng/g and 8.84 ng/g
  Final Compound 18 Lens Conc.: 0 ng/g (2×) and 0.384 ng/g
  Final Compound 18 Retina Conc.: 39.6 ng/g and 6.02 ng/g and 36.2 ng/g
[4]
  Compound 18 Iris/Ciliary Body Homogenate Conc.: BQL (BQL = Below lower limit of quantitation (0.0500 ng/mL for Compound 18) and 0.442 ng/mL
  Compound 18 Optic Nerve Homogenate Conc.: 12.4 ng/mL and 1.57 ng/mL and 5.20 ng/mL
  Compound 18 Retina Homogenate Conc.: 1.98 ng/mL and 0.301 ng/mL and 1.81 ng/mL
[5]
  Compound 18 Aqueous Humor Conc.: BQL (BQL = Below lower limit of quantitation (0.0500 ng/mL for Compound 18)
  Compound 18 Vitreous Humor Conc.: BQL (BQL = Below lower limit of quantitation (0.0500 ng/mL for Compound 18)
[6]
  Compound 18 Aqueous Humor Conc.: BQL (BQL = Below lower limit of quantitation (0.0500 ng/mL for Compound 18)
  Compound 18 Plasma Conc.: BQL (BQL = Below lower limit of quantitation (0.0500 ng/mL for Compound 18)
  Compound 18 Vitreous Humor Conc.: BQL (BQL = Below lower limit of quantitation (0.0500 ng/mL for Compound 18)
  Final Compound 18 Optic Nerve Conc.: 26.2 ng/g and 108 ng/g and 50.6 ng/g
  Compound 18 Lens Homogenate Conc.: BQL (BQL = Below lower limit of quantitation (0.0500 ng/mL for Compound 18)
  Cornea homogenate concentration: BQL (BQL = Below lower limit of quantitation (0.0500 ng/mL for Compound 18)
[7]
  Final Compound 18 Iris/Ciliary Body Conc.: 2.90 ng/g and 0 ng/g (2×)
  Final Compound 18 Lens Conc.: 0 ng/g
  Final Compound 18 Retina Conc.: 8.70 ng/g and 3.64 ng/g and 9.16 ng/g
[8]
  Compound 18 Iris/Ciliary Body Homogenate Conc.: BQL (BQL = Below lower limit of quantitation (0.0500 ng/mL for Compound 18)
  Compound 18 Optic Nerve Homogenate Conc.: 1.31 ng/mL and 5.41 ng/mL and 2.53 ng/mL
  Compound 18 Retina Homogenate Conc.: 0.435 ng/mL and 0.182 ng/mL and 0.458 ng/mL
  Compound 18 Trahecular Meshwork Homogenate Conc.: BQL (BQL = Below lower limit of quantitation (0.0500 ng/mL for Compound 18)
TD phase plasma and ocular tissues
  tissue of highest concentration: highest in optic nerve and sclera/choroid
Aqueous humor, vitreous humor, plasma, and lens (relatively low exposure)
  AUC0-8: 0.02-1.2 h*ng/mL or h*ng/g
cornea, Day 7, from mean concentrations
  AUC0-8: 209 ng·h/g
iris/ciliary body, Day 7, from mean concentrations
  AUC0-8: 150 ng·h/g
lens, Day 7, from mean concentrations
  AUC0-8: 1.19 ng·h/g
male, New Zealand white, rabbit, aqueous humor, other: ocular instillation (eye drop), 0.8 mg/kg/day, TD Phase, Mean, BQL set to 0, read-out: Compound 18 Aqueous Humor Conc.
  concentration at 1 h: 0.063 ng/mL
male, New Zealand white, rabbit, aqueous humor, other: ocular instillation (eye drop), 0.8 mg/kg/day, TD Phase, individual animals, read-out: Compound 18 Aqueous Humor Conc.
  concentration at 1 h: 0.189 ng/mL
male, New Zealand white, rabbit, iris/ciliary body homogenate, topical, 2 mg/day, TD Phase, Group 3, 4 h, individual animals, homogenate dilution factor 20, read-out: Compound 18 Iris/Ciliary Body Homogenate Conc.
  concentration at 4 h: 0.289 ng/mL
male, New Zealand white, rabbit, iris/ciliary body homogenate, topical, 2 mg/day, TD Phase, Group 3, 8 h, individual animals, homogenate dilution factor 20, read-out: Compound 18 Iris/Ciliary Body Homogenate Conc.
  concentration at 8 h: 0.145 ng/mL
male, New Zealand white, rabbit, iris/ciliary body, topical, 0.798 mg/kg/day, TD Phase, Mean, read-out: Final Compound 18 Iris/Ciliary Body Conc.
  concentration at 1 h: 107 ng/g
male, New Zealand white, rabbit, iris/ciliary body, topical, 0.798 mg/kg/day, TD Phase, Group 3, 0.5 h, Mean, read-out: Final Compound 18 Iris/Ciliary Body Conc.
  concentration at 0.5 h: 90.1 ng/g
